The compounds below were run against T1, human β3 adrenergic receptor (Homo sapiens, UniProt P13945) (assay: Functional assay: cAMP production (LANCE TR-FRET) in CHO cells stably transfected with cloned β3 adrenergic receptor). Conditions: Table 4; human β3 functional activity; read-out: Human β Binding.
T1 construct: expressed in transfected cells; host or cells: Chinese hamster ovary (CHO) cells, stably transfected
T1 sequence (P13945 whole entry): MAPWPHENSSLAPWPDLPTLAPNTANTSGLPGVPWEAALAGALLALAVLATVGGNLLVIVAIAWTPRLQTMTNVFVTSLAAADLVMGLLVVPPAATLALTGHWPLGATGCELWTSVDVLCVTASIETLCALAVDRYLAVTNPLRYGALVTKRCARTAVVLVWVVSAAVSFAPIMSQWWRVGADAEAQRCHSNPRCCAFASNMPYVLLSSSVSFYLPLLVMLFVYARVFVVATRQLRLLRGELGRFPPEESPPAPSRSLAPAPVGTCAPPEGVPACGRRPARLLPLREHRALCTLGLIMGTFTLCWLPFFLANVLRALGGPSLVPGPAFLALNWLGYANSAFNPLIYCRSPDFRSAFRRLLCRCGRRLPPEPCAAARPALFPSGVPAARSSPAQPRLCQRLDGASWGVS
Assay type: cell-based
Procedure: Chinese hamster ovary (CHO) cells, stably transfected with the cloned β-adrenergic receptor (β1, β2 or β3) are harvested after 3 days of subculturing. Harvesting of cells is done with Enzyme-free Dissociation Media (Specialty Media). Cells are then counted and resuspended in assay buffer (Hank's Balanced salt solution supplemented with 5 mM HEPES, 0.1% BSA) containing a phosphodiesterase inhibitor (IBMX, 0.6 mM). The reaction is initiated by mixing 6,000 cells in 6 μL with 6 μL Alexa Fluor labeled cAMP antibody (LANCE™ kit) which is then added to an assay well containing 12 μL of compound (diluted in assay buffer to 2× final concentration). The reaction proceeds for 30 min at room temperature and is terminated by the addition of 24 μL detection buffer (LANCE™ kit). The assay plate is then incubated for 1 h at room temperature and time-resolved fluorescence measured on a Perkin Elmer Envision reader or equivalent. The unknown cAMP level is determined by comparing fluorescence levels to a cAMP standard curve.
The non-selective, full agonist β-adrenergic ligand isoproterenol is used at all three receptors to determine maximal stimulation. […] Data are analyzed using Microsoft Excel and Graphpad Prism or an internally developed data analysis software package.
In the case of O=C(Cn1nc2ccccc2n1)Nc1ccc(C[C@@H]2CC[C@H]([C@H](O)c3ccccc3)N2)cc1 [Example 5], the EC50 is reported as 1 to 10 nM. For O=C(Cn1ncc2ccccc21)Nc1ccc(C[C@@H]2CC[C@H]([C@H](O)c3ccccc3)N2)cc1 [Example 6], the EC50 was 1 to 10 nM. O=C(Nc1ccc(C[C@@H]2CC[C@H]([C@H](O)c3ccccc3)N2)cc1)c1ccccc1N1CCCC1 [Example 7] was tested, and the EC50 was 101 to 1000 nM. Work on Cc1csc(CC(=O)Nc2ccc(C[C@@H]3CC[C@H]([C@H](O)c4ccccc4)N3)cc2)n1 [Example 8] yielded an EC50 of 11 to 100 nM. Compound Cc1nc(C)c(CC(=O)Nc2ccc(C[C@@H]3CC[C@H]([C@H](O)c4ccccc4)N3)cc2)s1 [Example 9] has an EC50 of 101 to 1000 nM. In the case of Cc1nc(C)c(CC(=O)Nc2ccc(C[C@@H]3CC[C@H]([C@H](O)c4ccccc4)N3)cc2)s1 [Example 10], the EC50 is reported as 1 to 10 nM. For O=C(Nc1ccc(C[C@@H]2CC[C@H]([C@H](O)c3ccccc3)N2)cc1)c1ccccc1-n1nccn1 [Example 11], the EC50 was 11 to 100 nM. In the case of O=C(Nc1ccc(C[C@@H]2CC[C@H]([C@H](O)c3ccccc3)N2)cc1)c1ccccc1-c1ncc[nH]1 [Example 12], the EC50 is reported as 11 to 100 nM. For O=C(Nc1ccc(C[C@@H]2CC[C@H]([C@H](O)c3ccccc3)N2)cc1)c1ccccc1-c1nnn[nH]1 [Example 13], the EC50 was 11 to 100 nM. For O=C(Nc1ccc(C[C@@H]2CC[C@H]([C@H](O)c3ccccc3)N2)cc1)c1ccccc1-c1nc2ccccc2s1 [Example 14], the EC50 was 101 to 1000 nM. Cc1nn(CC(=O)Nc2ccc(C[C@@H]3CC[C@H]([C@H](O)c4ccccc4)N3)cc2)c(=O)c2ccccc12 [Example 15] was tested, and the EC50 was 1 to 10 nM. Work on O=C(Cn1cnc2ccccc2c1=O)Nc1ccc(C[C@@H]2CC[C@H]([C@H](O)c3ccccc3)N2)cc1 [Example 16] yielded an EC50 of 1 to 10 nM. Work on O=C(Cn1c(=O)ncc2ccccc21)Nc1ccc(C[C@@H]2CC[C@H]([C@H](O)c3ccccc3)N2)cc1 [Example 17] yielded an EC50 of 1 to 10 nM. O=C(Cn1nc(Cc2ccccc2)c2ccccc2c1=O)Nc1ccc(C[C@@H]2CC[C@H]([C@H](O)c3ccccc3)N2)cc1 [Example 18] showed an EC50 of 1 to 10 nM. O=C(Cn1ncccc1=O)Nc1ccc(C[C@@H]2CC[C@H]([C@H](O)c3ccccc3)N2)cc1 [Example 20] was tested, and the EC50 was 1 to 10 nM. In the case of Cc1nnc(CC(=O)Nc2ccc(C[C@@H]3CC[C@H]([C@H](O)c4ccccc4)N3)cc2)[nH]1 [Example 21], the EC50 is reported as 11 to 100 nM. O=C(Cc1nnc(-c2ccccc2)[nH]1)Nc1ccc(C[C@@H]2CC[C@H]([C@H](O)c3ccccc3)N2)cc1 [Example 22] showed an EC50 of under 1 nM. O=C(Cc1nnc(-c2ccc(Cl)cc2)[nH]1)Nc1ccc(C[C@@H]2CC[C@H]([C@H](O)c3ccccc3)N2)cc1 [Example 23] was tested, and the EC50 was 11 to 100 nM. Compound O=C(Cc1nnc(-c2cscn2)[nH]1)Nc1ccc(C[C@@H]2CC[C@H]([C@H](O)c3ccccc3)N2)cc1 [Example 24] has an EC50 of 1 to 10 nM. O=C(Cc1nnc(-c2ccncc2)[nH]1)Nc1ccc(C[C@@H]2CC[C@H]([C@H](O)c3ccccc3)N2)cc1 [Example 25] showed an EC50 of 11 to 100 nM. Compound O=C(Cc1nnc(-c2cc(Cl)cc(Cl)c2)[nH]1)Nc1ccc(C[C@@H]2CC[C@H]([C@H](O)c3ccccc3)N2)cc1 [Example 26] has an EC50 of 101 to 1000 nM. O=C(Cc1nnc(-c2ccn[nH]2)[nH]1)Nc1ccc(C[C@@H]2CC[C@H]([C@H](O)c3ccccc3)N2)cc1 [Example 27] showed an EC50 of 1 to 10 nM. Compound Cn1nccc1-c1nnc(CC(=O)Nc2ccc(C[C@@H]3CC[C@H]([C@H](O)c4ccccc4)N3)cc2)[nH]1 [Example 28] has an EC50 of 11 to 100 nM. O=C(Cn1nnnc1-c1ccc(F)cc1)Nc1ccc(C[C@@H]2CC[C@H]([C@H](O)c3ccccc3)N2)cc1 [Example 29] gave an EC50 of 11 to 100 nM. O=C(Nc1ccc(C[C@@H]2CC[C@H]([C@H](O)c3ccccc3)N2)cc1)c1ccccc1CCc1ccccc1 [Example 30] was tested, and the EC50 was 101 to 1000 nM. For O=C(Nc1ccc(C[C@@H]2CC[C@H]([C@H](O)c3ccccc3)N2)cc1)c1ccccc1COc1ccccc1 [Example 31], the EC50 was 101 to 1000 nM. O=C(Nc1ccc(C[C@@H]2CC[C@H]([C@H](O)c3ccccc3)N2)cc1)c1ccccc1CCn1cccc1 [Example 32] gave an EC50 of 11 to 100 nM. With O=C(Cc1nnc(Cc2ccccc2)[nH]1)Nc1ccc(C[C@@H]2CC[C@H]([C@H](O)c3ccccc3)N2)cc1 [Example 33] the EC50 was 11 to 100 nM. O=C(Nc1ccc(C[C@@H]2CC[C@H]([C@H](O)c3ccccc3)N2)cc1)C1CCCN1c1cc(Cl)cc(Cl)c1 (some centres unmarked) [Example 35] was tested, and the EC50 was 11 to 100 nM. In the case of COc1cccc(N2CCCC2C(=O)Nc2ccc(C[C@@H]3CC[C@H]([C@H](O)c4ccccc4)N3)cc2)c1 (some centres unmarked) [Example 36], the EC50 is reported as 1 to 10 nM.

Same assay, conditions: Table 6; read-out: Human β3 Functional
In the case of Cc1nc2c(s1)CCCC2C(=O)Nc1ccc(CC2CCC(C(O)c3ccccc3)N2)cc1 (single isomer, unassigned) [Example 231], the EC50 is reported as 101 to 1000 nM. For Cc1nc2c(s1)CCCC2C(=O)Nc1ccc(CC2CCC(C(O)c3ccccc3)N2)cc1 (single isomer, unassigned) [Example 232], the EC50 was 1000 to 3000 nM.

Same assay, conditions: Table 10; β3AR-cAMP; read-out: Human β3 Functional
For Nc1nc2c(s1)CCC2C(=O)Nc1ccc(CC2CCC(C(O)c3cccc(F)c3)N2)cc1 (single isomer, unassigned) [Example 276], the EC50 was 11 to 100 nM. For Nc1nc2c(s1)CCC2C(=O)Nc1ccc(CC2CCC(C(O)c3cccc(F)c3)N2)cc1 (single isomer, unassigned) [Example 277], the EC50 was under 1 nM.

Same assay, conditions: Table 11; read-out: Human β3 Functional
For Nc1nc2c(s1)CCC2C(=O)Nc1ccc(CC2CCC(C(O)c3ccc(F)cc3)N2)cc1 (single isomer, unassigned) [Example 282], the EC50 was 11 to 100 nM. With Nc1nc2c(s1)CCC2C(=O)Nc1ccc(CC2CCC(C(O)c3ccc(F)cc3)N2)cc1 (single isomer, unassigned) [Example 283] the EC50 was under 1 nM. CC(C(=O)Nc1ccc(CC2CCC(C(O)c3ccc(F)cc3)N2)cc1)c1cscn1 (single isomer, unassigned) [Example 285] gave an EC50 of 11 to 100 nM. Compound CC(C(=O)Nc1ccc(CC2CCC(C(O)c3ccc(F)cc3)N2)cc1)c1cscn1 (single isomer, unassigned) [Example 286] has an EC50 of under 1 nM.

Same assay, conditions: Table 12; read-out: Human β3 Functional
Nc1nc2c(s1)CCC2C(=O)Nc1ccc(CC2CCC(C(O)c3ccc(F)c(F)c3)N2)cc1 (single isomer, unassigned) [Example 288] was tested, and the EC50 was 11 to 100 nM. For Nc1nc2c(s1)CCC2C(=O)Nc1ccc(CC2CCC(C(O)c3ccc(F)c(F)c3)N2)cc1 (single isomer, unassigned) [Example 289], the EC50 was under 1 nM. Compound Nc1nc2c(s1)CCC2C(=O)Nc1ccc(CC2CCC(C(O)c3ccc(F)c(F)c3)N2)cc1 (single isomer, unassigned) [Example 291] has an EC50 of 11 to 100 nM. Nc1nc2c(s1)CCC2C(=O)Nc1ccc(CC2CCC(C(O)c3ccc(F)c(F)c3)N2)cc1 (single isomer, unassigned) [Example 292] showed an EC50 of under 1 nM.

Same assay, conditions: given as a range; cAMP, CHO cells; read-out: human β3 functional activity
CC(C(=O)Nc1ccc(C[C@@H]2CC[C@H]([C@H](O)c3cccc(F)c3)N2)cc1)c1cscn1 (single isomer, unassigned) [Example 274] showed an EC50 of 11 to 100 nM. CC(C(=O)Nc1ccc(C[C@@H]2CC[C@H]([C@H](O)c3cccc(F)c3)N2)cc1)c1cscn1 (single isomer, unassigned) [Example 275] gave an EC50 of under 1 nM. In the case of Nc1nc(CC(=O)Nc2ccc(C[C@H]3CC[C@H]([C@H](O)c4ccccc4)N3)cc2)cs1 [Example 3, 2-(2-Amino-1,3-thiazol-4-yl)-N-[4-({(2R,5R)-[(R)hydroxy(phenyl)methyl]pyrrolidinyl}methyl)phenyl]acetamide], the EC50 is reported as 11 to 100 nM.

Same assay, conditions: human β3 functional activity, shown as ranges; Table 13; read-out: Human β3 Functional
Nc1nc2c(s1)CCC2C(=O)Nc1ccc(CC2CCC(C(O)c3cccc(Cl)c3)N2)cc1 (single isomer, unassigned) [Example 294] was tested, and the EC50 was 11 to 100 nM. Work on Nc1nc2c(s1)CCC2C(=O)Nc1ccc(CC2CCC(C(O)c3cccc(Cl)c3)N2)cc1 (single isomer, unassigned) [Example 295] yielded an EC50 of under 1 nM. O=C(Nc1ccc(CC2CCC(C(O)c3cccc(Cl)c3)N2)cc1)C1CCc2sc(Br)nc21 (single isomer, unassigned) [Example 298] was tested, and the EC50 was under 1 nM. Work on O=C(Nc1ccc(CC2CCC(C(O)c3cccc(Cl)c3)N2)cc1)C1CCc2sc(Br)nc21 (single isomer, unassigned) [Example 299] yielded an EC50 of 11 to 100 nM. O=C(Nc1ccc(CC2CCC(C(O)c3cccc(Cl)c3)N2)cc1)C1CCc2sc(F)nc21 (single isomer, unassigned) [Example 300] was tested, and the EC50 was 1 to 10 nM. In the case of O=C(Nc1ccc(CC2CCC(C(O)c3cccc(Cl)c3)N2)cc1)C1CCc2sc(F)nc21 (single isomer, unassigned) [Example 301], the EC50 is reported as 11 to 100 nM. CC(C(=O)Nc1ccc(CC2CCC(C(O)c3cccc(Cl)c3)N2)cc1)c1cscn1 (single isomer, unassigned) [Example 302] showed an EC50 of 1 to 10 nM. CC(C(=O)Nc1ccc(CC2CCC(C(O)c3cccc(Cl)c3)N2)cc1)c1cscn1 (single isomer, unassigned) [Example 303] showed an EC50 of 11 to 100 nM.

Same assay, conditions: human β3 functional activity, shown as ranges; Table 14; read-out: Human β3 Functional
Nc1nc2c(s1)CCC2C(=O)Nc1ccc(CC2CCC(C(O)c3cccc(F)c3)N2)cc1 (single isomer, unassigned) [Example 306] gave an EC50 of under 1 nM. Work on Nc1nc2c(s1)CCC2C(=O)Nc1ccc(CC2CCC(C(O)c3cccc(Cl)c3)N2)cc1 (single isomer, unassigned) [Example 310] yielded an EC50 of under 1 nM. With Nc1nc2c(s1)CCC2C(=O)Nc1ccc(CC2CCC(C(O)c3cccc(Cl)c3)N2)cc1 (single isomer, unassigned) [Example 311] the EC50 was 1 to 10 nM.
